Experimental data reported in ChEMBL document CHEMBL1201862, “PubChem BioAssay data set” (2004).
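These data come from cells grown in 96-well plates and exposed to compound for 48 hours at five concentrations. At the GI50, growth is halved.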 Active and inactive are the calls of the source. Rule as the data show it: active = GI50 up to about 1.1 µM and inactive = higher.

Legend:
Experiment in all cases: DTP human tumour cell line panel, 48 h
HOP-18 = system: HOP-18
Malme-3M = system: Malme-3M
NCI-H460 = system: NCI-H460
OVCAR-3 = system: OVCAR-3
A498 = system: A498
MOLT-4 = system: MOLT-4
OVCAR-5 = system: OVCAR-5
SK-MEL-2 = system: SK-MEL-2
LXFL 529 = system: LXFL 529
EKVX = system: EKVX
IGROV-1 = system: IGROV-1
COLO 205 = system: COLO 205
OVCAR-8 = system: OVCAR-8
NCI-H226 = system: NCI-H226
LOX IMVI = system: LOX IMVI
SF-295 = system: SF-295
SK-MEL-28 = system: SK-MEL-28
HT-29 = system: HT-29
KM12 = system: KM12
SR = system: SR
HCC 2998 = system: HCC 2998
HCT-15 = system: HCT-15
NCI-H522 = system: NCI-H522
UO-31 = system: UO-31
SW-620 = system: SW-620
A549 = system: A549
RXF 393 = system: RXF 393
M19-MEL = system: M19-MEL
OVCAR-4 = system: OVCAR-4
DLD-1 = system: DLD-1
XF498 = system: XF498
RPMI-8226 = system: RPMI-8226
HOP-92 = system: HOP-92
HCT-116 = system: HCT-116
SF-268 = system: SF-268
NCI-H23 = system: NCI-H23
HOP-62 = system: HOP-62
TK-10 = system: TK-10
SN12C = system: SN12C
KM-20L2 = system: KM-20L2
U-251 = system: U-251
DMS-114 = system: DMS-114
RXF 631 = system: RXF 631
SF-539 = system: SF-539
SNB-75 = system: SNB-75
UACC-257 = system: UACC-257
K562 = system: K562
SNB-78 = system: SNB-78
ACHN = system: ACHN
786-0 = system: 786-0
HL-60 = system: HL-60
SNB-19 = system: SNB-19
CAKI-1 = system: CAKI-1
SK-MEL-5 = system: SK-MEL-5
SK-OV-3 = system: SK-OV-3
UACC-62 = system: UACC-62
M14 = system: M14
CCRF-CEM = system: CCRF-CEM
DMS-273 = system: DMS-273

Measured: GI50

N#CCCn1[nH]c(=O)c(Cl)c(Cl)c1=O
inactive: HOP-18 16.9 µM | Malme-3M 17.3 µM | NCI-H460 13.3 µM | OVCAR-3 13.6 µM | A498 20.2 µM | MOLT-4 15.9 µM | OVCAR-5 18.8 µM | SK-MEL-2 14.7 µM | LXFL 529 16.9 µM | EKVX 3.87 µM | IGROV-1 17.1 µM | COLO 205 22.2 µM | OVCAR-8 15.7 µM | NCI-H226 23 µM | LOX IMVI 15 µM | SF-295 18.1 µM | SK-MEL-28 15.8 µM | HT-29 11.8 µM | KM12 14.5 µM | SR 14.7 µM | HCC 2998 13.1 µM | NCI-H522 20.2 µM | UO-31 18.9 µM | SW-620 17.8 µM | A549 22.7 µM | RXF 393 17.1 µM | M19-MEL 12 µM | OVCAR-4 18 µM | DLD-1 10.3 µM | XF498 16.1 µM | RPMI-8226 11.5 µM | HOP-92 6.21 µM | HCT-116 15.1 µM | SF-268 16.3 µM | NCI-H23 15.2 µM | HOP-62 > 10 µM | TK-10 35.8 µM | SN12C 17.4 µM | KM-20L2 15.8 µM | U-251 16.6 µM | DMS-114 14.9 µM | RXF 631 19.6 µM | SF-539 23.3 µM | SNB-75 13.2 µM | UACC-257 18.9 µM | K562 6.12 µM | SNB-78 19.6 µM | ACHN 17 µM | 786-0 18.7 µM | HL-60 11.3 µM | SNB-19 15.4 µM
10.4 µM: HCT-15

CCOc1ccc(/C=C2/C(=O)N=C(N)N=C2N)cc1OCC
inactive: HOP-18 > 100 µM | Malme-3M > 100 µM | NCI-H460 > 100 µM | CAKI-1 > 100 µM | OVCAR-3 > 100 µM | MOLT-4 > 100 µM | OVCAR-5 > 100 µM | SK-MEL-2 > 100 µM | LXFL 529 > 100 µM | EKVX > 100 µM | IGROV-1 > 100 µM | SK-MEL-5 > 100 µM | COLO 205 > 100 µM | OVCAR-8 > 100 µM | NCI-H226 > 100 µM | LOX IMVI > 100 µM | SF-295 > 100 µM | SK-MEL-28 > 100 µM | SK-OV-3 > 100 µM | HT-29 > 100 µM | KM12 > 100 µM | SR > 100 µM | HCC 2998 > 100 µM | NCI-H522 > 100 µM | UO-31 > 100 µM | SW-620 > 100 µM | A549 > 100 µM | RXF 393 > 100 µM | UACC-62 > 100 µM | M19-MEL > 100 µM | OVCAR-4 > 100 µM | XF498 > 100 µM | RPMI-8226 > 100 µM | HOP-92 > 100 µM | HCT-116 > 100 µM | NCI-H23 > 100 µM | M14 > 100 µM | CCRF-CEM > 100 µM | TK-10 > 100 µM | DMS-273 > 100 µM | SN12C > 100 µM | KM-20L2 > 100 µM | U-251 > 100 µM | DMS-114 > 100 µM | RXF 631 > 100 µM | SNB-75 > 100 µM | UACC-257 > 100 µM | K562 > 100 µM | SNB-78 > 100 µM | ACHN > 100 µM | 786-0 > 100 µM | HL-60 > 100 µM | SNB-19 > 100 µM
> 100 µM: HCT-15
